# Experimental data from publication PMC12486805, “Preclinical evaluation of tridecaptin M: in vitro and in vivo efficacy against colistin-resistant Gram-negative bacterial pathogens and pharmacokinetics” (Antimicrobial Agents and Chemotherapy, 2025).
# Like-named read-outs stand apart in the source and are kept apart here. Where a SMILES comes first, the peptide text is derived from it. [ ]: non-standard residue; d: D form. The star is where a group is joined. d(aIle) = CC[C@H](C)[C@@H](N)C(=O)O; X1 = CC[C@H](C)CCCCC(=O)*; dDab = NCC[C@@H](N)C(=O)O; Dab = NCC[C@H](N)C(=O)O
# Key:
# in vitro [1] = conditions: mouse, microsomes
# Protocol: (§4) For without cofactors, 20 µL of PBS was added instead of pre-incubated cofactors. […] At each specified time, a 100 µL sample was taken, processed through a sample extraction procedure, and submitted for LC-MS/MS analysis ([35]). Half-life (t1/2) of test/control items was determined using the following equation
# (§5) where, elimination rate constant (k) = −(slope of linear regression curve).
# in vitro [2] = conditions: human, microsomes, pH 7.4
# Protocol: as §4, §5
# Salmonella typhimurium = format: cell-based
# Protocol: The Salmonella typhimurium histidine-dependent engineered tester strains are allowed to incubate with S9 enzyme mix or PBS (without S9 set) for 30 min at 35°C. After incubation, the mixture was added to 2 mL of top agar tubes maintained at 46 ± 2°C and plated onto minimal glucose agar plates. After solidification, the plates are incubated at 37°C. Salmonella typhimurium auxotrophic mutants, if grown on minimal media, are counted as the number of revertant colonies due to the mutagenic potential of the compound tested. Positive controls, growth controls, and sterility checks are included during the experimentation for the sensitivity of the experiment ([38]).
# [3] = 14-day repeat dose toxicity in mice; conditions: 15 mg/kg/day in two s.c. doses, 14 days
# Protocol: Organs were fixed in 10% formalin for histopathology, and the serum was centrifuged from whole blood. The blood was left undisturbed for 20 min and centrifuged at 1,000 × g for 10 min to isolate serum for biochemical tests of the kidney and liver toxicity evaluation ([22]).
# [4] = 12 mg/kg every 2 h up to 12 h, total 72 mg/kg; cited from earlier work
# CYP2C19 = CYP2C19 (Homo sapiens, UniProt P33261); assay: CYP inhibition assay, recombinant isoform, fluorescence; format: biochemical
# Protocol: (§1) The CYP inhibition assay was performed for test/control inhibitor items in duplicates using a 96-well fluorescence plate. An example of the preparation of CYP inhibition is given below in Table 8.
# (§2) The plate with CYP master premix with test/control was incubated to allow the test/control samples to interact with CYP enzyme for 10 ± 1 min at 25°C under shaking conditions (400 rpm) using Thermomixer. The assay was initiated by adding 10 µL of a substrate and NADP^+ mixture to all wells, including a vehicle control and an assay blank. […] After incubation, the reaction was quenched by adding 50 µL of stop reagent (0.5 M Tris base) to each well.
# CYP2D6 = CYP2D6 (Homo sapiens, UniProt P10635); assay: as above; format: biochemical
# Protocol: as §1, §2
# CYP3A4 = CYP3A4 (Homo sapiens, UniProt P08684); assay: as above; format: biochemical
# Protocol: as §1, §2
# E. coli = format: cell-based, Escherichia coli
# Protocol: (§3) The MIC for all isolates was determined using the broth microdilution method. This involved preparing CA-MHB medium and serially diluting antibiotic solutions by a factor of two. The test organism was adjusted to a concentration of ≈5 × 10^5 CFU/mL. In a sterile 96-well microtiter plate, 100 µL of CA-MHB, along with 100 µL of each antibiotic, was added, and serial dilutions were made. A 100 µL suspension of the organism was added to each well and mixed, resulting in a total reaction volume of 200 µL per well. The plate was then incubated at 37°C for 16–18 h. The MIC was identified as the lowest concentration of antibiotic that prevented any visible growth of the organism ([16]).
# K. pneumoniae = format: cell-based, Klebsiella pneumoniae
# Protocol: as §3
# [5] = subcutaneous, 5 mg/kg b.w., plasma
# CYP2D6, sequence (P10635 whole entry): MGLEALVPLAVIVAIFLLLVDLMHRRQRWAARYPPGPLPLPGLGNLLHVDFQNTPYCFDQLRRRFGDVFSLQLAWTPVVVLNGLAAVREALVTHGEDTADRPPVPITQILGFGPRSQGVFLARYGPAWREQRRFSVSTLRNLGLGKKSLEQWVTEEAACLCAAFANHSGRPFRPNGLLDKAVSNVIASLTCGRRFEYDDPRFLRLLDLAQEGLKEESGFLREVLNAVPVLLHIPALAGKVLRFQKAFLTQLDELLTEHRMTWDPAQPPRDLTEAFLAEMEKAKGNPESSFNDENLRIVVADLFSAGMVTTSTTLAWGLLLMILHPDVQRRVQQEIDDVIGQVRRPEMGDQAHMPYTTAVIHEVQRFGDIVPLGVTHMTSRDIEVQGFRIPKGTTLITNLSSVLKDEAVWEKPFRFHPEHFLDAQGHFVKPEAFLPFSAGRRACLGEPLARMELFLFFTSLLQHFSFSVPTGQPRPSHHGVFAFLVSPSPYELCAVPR
# CYP3A4, sequence (P08684 whole entry): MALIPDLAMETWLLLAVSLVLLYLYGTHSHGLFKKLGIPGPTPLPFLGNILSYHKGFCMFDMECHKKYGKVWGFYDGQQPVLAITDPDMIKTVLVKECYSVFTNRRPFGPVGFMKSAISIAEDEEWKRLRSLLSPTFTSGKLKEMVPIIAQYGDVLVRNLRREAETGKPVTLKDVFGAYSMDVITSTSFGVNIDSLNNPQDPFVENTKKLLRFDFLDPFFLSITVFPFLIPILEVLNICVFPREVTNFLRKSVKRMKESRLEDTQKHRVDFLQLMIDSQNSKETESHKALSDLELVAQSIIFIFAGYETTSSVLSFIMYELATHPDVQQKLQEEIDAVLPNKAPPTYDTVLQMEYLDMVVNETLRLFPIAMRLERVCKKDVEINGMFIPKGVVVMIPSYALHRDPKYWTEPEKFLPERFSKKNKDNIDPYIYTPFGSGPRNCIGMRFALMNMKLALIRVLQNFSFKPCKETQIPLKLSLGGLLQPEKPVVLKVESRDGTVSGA
# CYP2C19, sequence (P33261 whole entry, canonical isoform): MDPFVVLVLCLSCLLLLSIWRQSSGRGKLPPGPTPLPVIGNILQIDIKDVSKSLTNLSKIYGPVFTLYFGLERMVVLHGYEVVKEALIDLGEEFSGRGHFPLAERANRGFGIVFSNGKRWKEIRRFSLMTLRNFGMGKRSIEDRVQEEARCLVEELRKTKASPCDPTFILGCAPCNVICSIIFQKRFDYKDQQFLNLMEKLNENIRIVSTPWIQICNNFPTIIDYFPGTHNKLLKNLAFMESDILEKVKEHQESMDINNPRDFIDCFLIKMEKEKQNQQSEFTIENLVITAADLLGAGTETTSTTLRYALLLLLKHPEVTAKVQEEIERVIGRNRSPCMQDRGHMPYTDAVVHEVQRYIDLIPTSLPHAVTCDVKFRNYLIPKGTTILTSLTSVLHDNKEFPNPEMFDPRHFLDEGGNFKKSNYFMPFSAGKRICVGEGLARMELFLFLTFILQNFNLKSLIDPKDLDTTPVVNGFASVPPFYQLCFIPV
smiles,measurement,setting,value
"CC[C@H](C)CCCCC(=O)NCC(=O)N[C@H](CCN)C(=O)NCC(=O)N[C@H](CO)C(=O)N[C@H](Cc1c[nH]c2ccccc12)C(=O)N[C@@H](CO)C(=O)N[C@@H](CCN)C(=O)N[C@H](CCN)C(=O)N[C@H](C(=O)N[C@@H](CCC(=O)O)C(=O)N[C@H](C(=O)N[C@@H](C(=O)N[C@@H](CO)C(=O)O)[C@@H](C)CC)[C@@H](C)CC)[C@@H](C)CC [Tridecaptin M, tridecaptin M] (X1-G[dDab]G[dS][dW]S[Dab][dDab]IEI[d(aIle)]S-OH)",Cmax relative to the MIC value,"intravenous, 5mg/kg b.w.",about 10 times
same,time plasma concentration maintained above MIC (4µg/mL),"intravenous, 5mg/kg b.w.",about 4 h
same,Cmax,"intravenous, 5 mg/kg b.w., plasma, 5 mg/kg",43200 ± 6020 ng/mL
same,CL,[5],4.95 ± 0.24 mL/min/kg
same,Vss,[5],2.63 ± 0.45 L/kg
same,T1/2,"subcutaneous, 5 mg/kg b.w., plasma, 5 mg/kg",8.56 ± 1.60 h
same,half-life,in vitro [1]; pH 7.4,> 2 h
same,remaining at 0.25 h,in vitro [1]; pH 7.4,82.4%
same,remaining at 0.5 h,in vitro [1]; pH 7.4,83.8%
same,remaining at 1 h,in vitro [1]; pH 7.4,88.1%
same,remaining at 2 h,in vitro [1]; pH 7.4,74.7%
same,microsomal CLint,"in vitro [1]; pH 7.4, CL, mouse liver microsomes",< 11 µL/min/mg
same,half-life,in vitro [2],1.31 h
same,microsomal CLint,in vitro [2],17.6 µL/min/mg
same,remaining at 0.25 h,in vitro [2],58%
same,remaining at 0.5 h,in vitro [2],50.2%
same,remaining at 1 h,in vitro [2],53.7%
same,remaining at 2 h,in vitro [2],48.4%
same,AMES test Remark,Salmonella typhimurium; 0.03 μg/plate,Mutagenic response not observed
same,AMES test TA98,Salmonella typhimurium; 0.03 μg/plate,"NC, NR"
same,AMES test TA100,Salmonella typhimurium; 0.03 μg/plate,"NC, NR"
same,AMES test TA102,Salmonella typhimurium; 0.03 μg/plate,"NC, NR"
same,AMES test TA1535,Salmonella typhimurium; 0.03 μg/plate,"NC, NR"
same,AMES test TA1537,Salmonella typhimurium; 0.03 μg/plate,"NC, NR"
same,AMES test Remark,Salmonella typhimurium; 0.10 μg/plate,Mutagenic response not observed
same,AMES test TA98,Salmonella typhimurium; 0.10 μg/plate,"NC, NR"
same,AMES test TA100,Salmonella typhimurium; 0.10 μg/plate,"NC, NR"
same,AMES test TA102,Salmonella typhimurium; 0.10 μg/plate,"NC, NR"
same,AMES test TA1535,Salmonella typhimurium; 0.10 μg/plate,"NC, NR"
same,AMES test TA1537,Salmonella typhimurium; 0.10 μg/plate,"NC, NR"
same,AMES test Remark,Salmonella typhimurium; 0.32 μg/plate,Mutagenic response not observed
same,AMES test TA98,Salmonella typhimurium; 0.32 μg/plate,"NC, NR"
same,AMES test TA100,Salmonella typhimurium; 0.32 μg/plate,"NC, NR"
same,AMES test TA102,Salmonella typhimurium; 0.32 μg/plate,"NC, NR"
same,AMES test TA1535,Salmonella typhimurium; 0.32 μg/plate,"NC, NR"
same,AMES test TA1537,Salmonella typhimurium; 0.32 μg/plate,"NC, NR"
same,AMES test Remark,Salmonella typhimurium; 1.00 μg/plate,Mutagenic response not observed
same,AMES test TA98,Salmonella typhimurium; 1.00 μg/plate,"NC, NR"
same,AMES test TA100,Salmonella typhimurium; 1.00 μg/plate,"NC, NR"
same,AMES test TA102,Salmonella typhimurium; 1.00 μg/plate,"NC, NR"
same,AMES test TA1535,Salmonella typhimurium; 1.00 μg/plate,"NC, NR"
same,AMES test TA1537,Salmonella typhimurium; 1.00 μg/plate,"NC, NR"
same,AMES test Remark,Salmonella typhimurium; 3.16 μg/plate,Mutagenic response not observed
same,AMES test TA98,Salmonella typhimurium; 3.16 μg/plate,"NC, NR"
same,AMES test TA100,Salmonella typhimurium; 3.16 μg/plate,"NC, NR"
same,AMES test TA102,Salmonella typhimurium; 3.16 μg/plate,"NC, NR"
same,AMES test TA1535,Salmonella typhimurium; 3.16 μg/plate,"NC, NR"
same,AMES test TA1537,Salmonella typhimurium; 3.16 μg/plate,"NC, NR"
same,AMES test Remark,Salmonella typhimurium; 10 μg/plate,Cytotoxicity observed
same,AMES test TA98,Salmonella typhimurium; 10 μg/plate,"PI, RC"
same,AMES test TA100,Salmonella typhimurium; 10 μg/plate,"PI, RC"
same,AMES test TA102,Salmonella typhimurium; 10 μg/plate,"PI, RC"
same,AMES test TA1535,Salmonella typhimurium; 10 μg/plate,"PI, RC"
same,AMES test TA1537,Salmonella typhimurium; 10 μg/plate,"PI, RC"
same,effect on Salmonella typhimurium tester strains,Salmonella typhimurium; 10 µg/plate and above,cytotoxic
same,mutagenic potential,"Salmonella typhimurium; 3.16, 1.00, 0.32 and 0.10 µg/plate, presence and absence of S9",did not show any mutagenic potential
same,ALP (serum),[3],77.33 ± 27.47 U/L
same,Albumin (serum),[3],2.60 ± 0.47 g/dL
same,BBilirubin (serum),[3],0.31 ± 0.06 mg/dL
same,BUN (serum),[3],35.33 ± 11.43 mg%
same,Calcium (serum),[3],7.76 ± 2.19 mg%
same,Creatinine (serum),[3],0.41 ± 0.026 mg%
same,Globulin (serum),[3],3.53 ± 0.83 g/dL
same,Phosphorous (serum),[3],7.36 ± 1.27 mg%
same,Proteins (serum),[3],6.13 ± 1.06 g/dL
same,SGOT (serum),[3],657.33 ± 141.06 Units/L
same,SGPT (serum),[3],103.67 ± 40.70 Units/L
same,Uric acid (serum),[3],4.6 ± 1.89 mg%
same,histopathological analysis of liver and kidneys,[3],no signs of toxicity
same,tolerance in acute toxicity study,[4],good tolerance
same,IC50,CYP2C19,> 30 µM
same,"inhibition at 25 min, 0.01 µM",CYP2C19; human,< 0%
same,"inhibition at 25 min, 0.03 µM",CYP2C19; human,< 0%
same,"inhibition at 25 min, 0.1 µM",CYP2C19; human,< 0%
same,"inhibition at 25 min, 0.3 µM",CYP2C19; human,< 0%
same,"inhibition at 25 min, 1 µM",CYP2C19; human,< 0%
same,"inhibition at 25 min, 3 µM",CYP2C19; human,0.13%
same,"inhibition at 25 min, 10 µM",CYP2C19; human,5.67%
same,"inhibition at 25 min, 30 µM",CYP2C19; human,11.7%
same,IC50,CYP2D6,> 30 µM
same,"inhibition at 25 min, 0.01 µM",CYP2D6; human,< 0%
same,"inhibition at 25 min, 0.03 µM",CYP2D6; human,< 0%
same,"inhibition at 25 min, 0.1 µM",CYP2D6; human,< 0%
same,"inhibition at 25 min, 0.3 µM",CYP2D6; human,< 0%
same,"inhibition at 25 min, 1 µM",CYP2D6; human,< 0%
same,"inhibition at 25 min, 3 µM",CYP2D6; human,1.28%
same,"inhibition at 25 min, 10 µM",CYP2D6; human,10.9%
same,"inhibition at 25 min, 30 µM",CYP2D6; human,13.1%
same,IC50,CYP3A4,> 30 µM
same,"inhibition at 25 min, 0.01 µM",CYP3A4; human,< 0%
same,"inhibition at 25 min, 0.03 µM",CYP3A4; human,< 0%
same,"inhibition at 25 min, 0.1 µM",CYP3A4; human,< 0%
same,"inhibition at 25 min, 0.3 µM",CYP3A4; human,< 0%
same,"inhibition at 25 min, 1 µM",CYP3A4; human,3.77%
same,"inhibition at 25 min, 3 µM",CYP3A4; human,9%
same,"inhibition at 25 min, 10 µM",CYP3A4; human,28%
same,"inhibition at 25 min, 30 µM",CYP3A4; human,26.6%
same,MIC,E. coli,4 µg/mL
same,MIC50,E. coli,4 µg/mL
same,MIC range,E. coli,1 to 8 µg/mL
same,MIC values,E. coli,2 to 8 µg/mL
same,MIC,K. pneumoniae,4 µg/mL
same,MIC90,K. pneumoniae,8 µg/mL
same,MIC range,K. pneumoniae,2 to 8 µg/mL
same,MIC values,K. pneumoniae,2 to 8 µg/mL
